Target: KRas G12C (Homo sapiens, UniProt P01116, G12C)
Assay: Cellular inhibition of KRas G12C measured by Phospho-ERK in NCI-H358 cells
Format: cell-based
Conditions: pERK(Thr202/Tyr204) normalized with GAPDH, NCI-H358 cells, 3 hours; read-out: IC50
Outline: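 NCI-H358 cells treated 3 h with compound (0.5% DMSO final), then fixed and methanol-permeabilised. In-cell immunofluorescence measured pERK(Thr202/Tyr204) normalised to GAPDH as percent of DMSO control. IC50 from a 4-parameter dose-response fit.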

Sequence of KRas G12C (P01116 1-188 isoform P01116-2 G12C): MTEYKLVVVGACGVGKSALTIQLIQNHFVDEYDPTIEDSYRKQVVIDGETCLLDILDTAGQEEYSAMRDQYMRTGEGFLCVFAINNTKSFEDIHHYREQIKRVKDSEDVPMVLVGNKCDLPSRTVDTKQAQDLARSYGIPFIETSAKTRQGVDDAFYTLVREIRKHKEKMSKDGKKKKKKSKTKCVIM

| SMILES | IC50 [µM] |
| --- | --- |
| C=CC(=O)N1CCN(c2nc(OC[C@@H]3CCCN3CC)nc3c2CCN(c2ccc(F)c4ccccc24)C3)CC1CC#N (stereo partly drawn) [Example 322, 2-(1-acryloyl-4-(2-(((S)-1-ethylpyrrolidin-2-yl)methoxy)-7-(4-fluoronaphthalen-1-yl)-5,6,7,8-tetrahydropyrido[3,4-d]pyrimidin-4-yl)piperazin-2-yl)acetonitrile] | 0.0001 to 1 |
| C=CC(=O)N1CCN(c2nc(OC[C@H]3C[C@H](O)CN3C)nc3c2CCN(c2cccc4ccccc24)C3)C[C@@H]1CC#N [Example 323, 2-[(2S)-4-[2-[[(2R,4S)-4-hydroxy-1-methyl-pyrrolidin-2-yl]methoxy]-7-(1-naphthyl)-6,8-dihydro-5H-pyrido[3,4-d]pyrimidin-4-yl]-1-prop-2-enoyl-piperazin-2-yl]acetonitrile] | 0.0001 to 1 |
| C=CC(=O)N1CCN(c2nc(OC[C@@H]3CCCN3C)nc3c2CCN(c2cccc(OC)c2C)C3)C[C@@H]1CC#N [Example 324, 2-[(2S)-4-[7-(3-methoxy-2-methyl-phenyl)-2-[[(2S)-1-methylpyrrolidin-2-yl]methoxy]-6,8-dihydro-5H-pyrido[3,4-d]pyrimidin-4-yl]-1-prop-2-enoyl-piperazin-2-yl]acetonitrile] | 0.0001 to 1 |
| C=CC(=O)N1CCN(c2nc(OC[C@@H]3CCCN3C)nc3c2CCN(c2ccccc2C#N)C3)C[C@@H]1CC#N [Example 325, 2-[4-[(3S)-3-(cyanomethyl)-4-prop-2-enoyl-piperazin-1-yl]-2-[[(2S)-1-methylpyrrolidin-2-yl]methoxy]-6,8-dihydro-5H-pyrido[3,4-d]pyrimidin-7-yl]benzonitrile] | > 1 |
| C=CC(=O)N1CCN(c2nc(OC[C@@H]3CCCN3C)nc3c2CCN(c2cccc4ccc(C)cc24)C3)C[C@@H]1CC#N [Example 326, 2-((S)-1-acryloyl-4-(7-(7-methylnaphthalen-1-yl)-2-(((S)-1-methylpyrrolidin-2-yl)methoxy)-5,6,7,8-tetrahydropyrido[3,4-d]pyrimidin-4-yl)piperazin-2-yl)acetonitrile] | 0.0001 to 1 |
| C=CC(=O)N1CCN(c2nc(OC[C@@H]3C[C@@H](OC)CN3C)nc3c2CCN(c2cccc4ccccc24)C3)C[C@@H]1CC#N [Example 327, 2-((S)-1-acryloyl-4-(2-(((2S,4R)-4-methoxy-1-methylpyrrolidin-2-yl)methoxy)-7-(naphthalen-1-yl)-5,6,7,8-tetrahydropyrido[3,4-d]pyrimidin-4-yl)piperazin-2-yl)acetonitrile] | 0.0001 to 1 |
| C=CC(=O)N1CCN(c2nc(OC[C@@H]3CCCN3C)nc3c2CCN(c2cccc(F)c2C(F)(F)F)C3)C[C@@H]1CC#N [Example 328] | 0.0001 to 1 |
| C=CC(=O)N1CCN(c2nc(OC[C@H]3CCCN3CCO)nc3c2CCN(c2cccc4ccccc24)C3)C[C@@H]1CC#N [Example 329, 2-[(2S)-4-[2-[[(2R)-1-(2-hydroxyethyl)pyrrolidin-2-yl]methoxy]-7-(1-naphthyl)-6,8-dihydro-5H-pyrido[3,4-d]pyrimidin-4-yl]-1-prop-2-enoyl-piperazin-2-yl]acetonitrile] | 0.0001 to 1 |
| C=CC(=O)N1CCN(c2nc(OC[C@@H]3CCCN3C)nc3c2CCN(c2cccc(OC)c2C(F)(F)F)C3)C[C@@H]1CC#N [Example 330, 2-[(2S)-4-[7-[3-methoxy-2-(trifluoromethyl)phenyl]-2-[[(2S)-1-methylpyrrolidin-2-yl]methoxy]-6,8-dihydro-5H-pyrido[3,4-d]pyrimidin-4-yl]-1-prop-2-enoyl-piperazin-2-yl]acetonitrile] | 0.0001 to 1 |
| C=CC(=O)N1CCN(c2nc(OC[C@@H]3C[C@@H](OC)CN3C)nc3c2CCN(c2cccc(Cl)c2C(F)(F)F)C3)C[C@@H]1CC#N [Example 332, 2-[(2S)-4-[7-[3-chloro-2-(trifluoromethyl)phenyl]-2-[[(2S,4R)-4-methoxy-1-methyl-pyrrolidin-2-yl]methoxy]-6,8-dihydro-5H-pyrido[3,4-d]pyrimidin-4-yl]-1-prop-2-enoyl-piperazin-2-yl]acetonitrile] | 0.0001 to 1 |

— US10689377B2 (Mirati Therapeutics, Inc., priority 2017, dated 2020)
